# From patent publication US20230147683A1, “TREATMENT” (UNION Therapeutics A/S, priority 2020, published 2023)
# Legend:
# [1] = human, in vivo
# in vitro [2] = details: African green monkey
# SARS-CoV-2 = assay: Inhibition of SARS-CoV-2 replication in Caco-2 cells; type: cell-based; details: Severe acute respiratory syndrome coronavirus 2
# [3] = system: SARS-CoV-2 B 1.351 strain; assay: microbe, parasite or virus in culture; type: cell-based; details: Severe acute respiratory syndrome coronavirus 2; VeroE6 TMPRSS2 cells; read-out: EC50 against B 1.351 strain
# SARS-CoV-2 D614 strain = assay: microbe, parasite or virus in culture; type: cell-based; details: Severe acute respiratory syndrome coronavirus 2; VeroE6 TMPRSS2 cells; read-out: EC50 against D614 strain
# in vitro [4] = details: human
# [5] = system: SARS-CoV-2 B.1.1.7 strain; assay: microbe, parasite or virus in culture; type: cell-based; details: Severe acute respiratory syndrome coronavirus 2; VeroE6 TMPRSS2 cells; read-out: EC50 against B.1.1.7 strain
# clinical = details: human, in vivo
# SARS-CoV = details: cited from earlier work
# [6] = 2 g/day oral dose; IC90 against SARS-CoV-2
# [7] = asthmatic mice, niclosamide in corn oil, I.P. injection; cited from earlier work
# all targeted strains = assay: Minimum Inhibitory Concentration (MIC) assay, all strains; details: read-out: MIC against all targeted strains
# TMEM16F = target: T1, TMEM16F (Homo sapiens, UniProt Q4KMQ2); details: cited from earlier work
# T1 sequence (Q4KMQ2 1-910): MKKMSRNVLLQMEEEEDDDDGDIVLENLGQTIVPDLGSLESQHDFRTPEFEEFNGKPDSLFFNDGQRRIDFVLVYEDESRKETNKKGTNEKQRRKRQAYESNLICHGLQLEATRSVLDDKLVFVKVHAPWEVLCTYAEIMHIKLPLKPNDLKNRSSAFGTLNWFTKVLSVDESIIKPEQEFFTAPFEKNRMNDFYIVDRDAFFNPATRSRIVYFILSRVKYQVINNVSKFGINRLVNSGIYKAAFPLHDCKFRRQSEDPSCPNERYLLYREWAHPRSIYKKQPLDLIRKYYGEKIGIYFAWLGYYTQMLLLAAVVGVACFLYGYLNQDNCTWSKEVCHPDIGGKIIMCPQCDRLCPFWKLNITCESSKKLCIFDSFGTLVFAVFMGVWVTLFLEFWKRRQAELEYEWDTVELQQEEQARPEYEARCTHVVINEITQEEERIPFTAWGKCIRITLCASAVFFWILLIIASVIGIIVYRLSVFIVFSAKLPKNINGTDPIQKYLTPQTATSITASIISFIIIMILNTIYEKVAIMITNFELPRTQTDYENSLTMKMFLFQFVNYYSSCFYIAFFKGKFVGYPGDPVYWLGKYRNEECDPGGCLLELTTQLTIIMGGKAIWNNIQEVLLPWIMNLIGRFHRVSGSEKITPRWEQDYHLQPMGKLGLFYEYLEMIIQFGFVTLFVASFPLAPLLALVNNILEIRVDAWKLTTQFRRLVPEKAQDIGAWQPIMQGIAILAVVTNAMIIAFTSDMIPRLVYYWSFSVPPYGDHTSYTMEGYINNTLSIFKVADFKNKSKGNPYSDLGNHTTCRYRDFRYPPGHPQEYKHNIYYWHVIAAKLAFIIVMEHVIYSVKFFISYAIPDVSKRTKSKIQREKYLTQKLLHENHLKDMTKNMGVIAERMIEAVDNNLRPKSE
# TMEM16A = target: T2, TMEM16A (Homo sapiens, UniProt Q5XXA6); details: cited from earlier work
# T2 sequence (Q5XXA6 1-986): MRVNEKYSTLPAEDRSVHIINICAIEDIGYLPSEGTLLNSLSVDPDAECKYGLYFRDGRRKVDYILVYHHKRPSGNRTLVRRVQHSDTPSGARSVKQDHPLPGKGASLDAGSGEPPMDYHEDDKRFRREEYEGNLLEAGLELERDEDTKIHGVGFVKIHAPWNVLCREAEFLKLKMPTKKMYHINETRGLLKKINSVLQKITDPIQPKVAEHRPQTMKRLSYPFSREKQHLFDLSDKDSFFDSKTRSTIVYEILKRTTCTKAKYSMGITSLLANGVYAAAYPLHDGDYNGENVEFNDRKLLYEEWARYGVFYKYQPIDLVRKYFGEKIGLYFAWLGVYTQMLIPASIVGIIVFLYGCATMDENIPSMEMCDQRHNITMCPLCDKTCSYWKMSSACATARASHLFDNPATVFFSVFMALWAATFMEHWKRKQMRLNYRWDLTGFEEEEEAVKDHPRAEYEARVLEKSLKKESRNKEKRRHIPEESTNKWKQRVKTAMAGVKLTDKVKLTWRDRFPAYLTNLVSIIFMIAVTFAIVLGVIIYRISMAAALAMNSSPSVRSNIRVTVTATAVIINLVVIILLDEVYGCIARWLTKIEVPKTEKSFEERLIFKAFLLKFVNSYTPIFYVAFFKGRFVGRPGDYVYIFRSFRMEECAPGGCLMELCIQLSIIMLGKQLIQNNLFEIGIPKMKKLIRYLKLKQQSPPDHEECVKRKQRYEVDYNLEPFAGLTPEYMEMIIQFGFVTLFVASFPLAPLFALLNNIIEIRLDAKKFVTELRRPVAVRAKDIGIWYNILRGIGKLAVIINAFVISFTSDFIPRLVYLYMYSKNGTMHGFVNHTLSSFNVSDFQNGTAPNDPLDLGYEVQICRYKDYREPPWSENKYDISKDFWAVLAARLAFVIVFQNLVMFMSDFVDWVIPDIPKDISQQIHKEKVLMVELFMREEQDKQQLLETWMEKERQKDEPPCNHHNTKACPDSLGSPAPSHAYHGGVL
Compound,peak concentrations in blood (range) [1],CC50 (in vitro [2]),EC50 (SARS-CoV-2),EC50 [3],EC50 (SARS-CoV-2 D614 strain),CC50 (in vitro [4]),EC50 [5],AUC(0-t) (clinical),"Cmax (clinical; maximum plasma concentration (Cmax), mean)",concentration at which viral antigen synthesis was totally abolished (SARS-CoV),"concentration suppressing cytopathic effect (CPE), as low as (SARS-CoV)","efficacy margin, mean systemic exposure of human oral dose to IC90 [6]",effect on mucus production and secretion and bronchoconstriction [7],MIC (all targeted strains),inhibition of TMEM16F (TMEM16F),inhibition of TMEM16A (TMEM16A)
O=C(Nc1ccc([N+](=O)[O-])cc1Cl)c1cc(Cl)ccc1O [niclosamide ethanolamine],29 to 506 ng/mL,> 10 µM,80 nM,70 nM,130 nM,> 10 µM,80 nM,509 ng·h/mL,239 ng/mL,–,–,–,–,–,–,–
"O=C(Nc1ccc([N+](=O)[O-])cc1Cl)c1cc(Cl)ccc1O [niclosamide, 5-chloro-N-(2-chloro-4-nitrophenyl)-2-hydroxybenzamide]",–,–,–,–,–,–,–,–,–,1.56 μm,1 μm,8 fold,"reduced mucus production and secretion, as well as bronchoconstriction",≤ 0.5 µg/mL,potent inhibitor,potent inhibitor
